Results from PubChem BioAssay AID743022 (Sanford-Burnham Center for Chemical Genomics, 2013).
Several values for one entry are separate records, joined by “and”; a condition that tells them apart may be missing. Identical values can stand only once. Activity calls are given as the source filed them.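 How the source made its calls: active means compounds whose mean IC50 for blocking the worm GFP/RFP stress reporter is 5 µM or lower; inactive means the rest.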

tested on: C. elegans VP596 gst-4::GFP/RFP ratio, acrylamide-induced, 24 h; test: analog inhibition of acrylamide-induced gst-4::GFP reporter, SAR follow-up, SKN-1 inhibitor project, whole organism, GFP/RFP fluorescence ratio, round 3 (AID 743022)

Structure (SMILES) | IC50
N#Cc1ccc(-c2csc(-c3ccncc3)n2)cc1 | 13.5 µM (inactive)
Clc1ccc(-c2csc(-c3ccccc3)n2)cc1 | 2.1 µM
CC(C)(C)c1csc(-c2ccncc2)n1 | > 64 µM (inactive)
Clc1ccc(-c2csc(-c3ccccn3)n2)cc1 | 1.59 µM and 0.869 µM
Cc1sc(-c2ccncc2)nc1-c1ccccc1 | 11.3 µM (inactive)
Clc1ccc(-c2csc(-c3ccncc3)n2)cc1Cl | 0.276 µM and 0.884 µM
Clc1ccc(-c2csc(-c3ccncc3)n2)cc1 | 1.34 µM and 1.92 µM
c1ccc(-c2csc(C3CCNCC3)n2)cc1 | > 64 µM (inactive)
COc1ccc(-c2nc(-c3ccncc3)sc2C)cc1 | 51.2 µM (inactive)
c1cc(-c2nc(C3CC3)cs2)ccn1 | > 64 µM (inactive)
Cc1ccc(-c2csc(-c3ccncc3)n2)cc1 | 18.2 µM (inactive)
COc1ccc(-c2csc(-c3cccnc3)n2)cc1 | 13.4 µM (inactive)
Cc1ccc(-c2csc(-c3ccccn3)n2)cc1 | 27.4 µM (inactive)
c1ccc(-c2csc(-c3ccncc3)n2)cc1 | 2.5 µM
Clc1ccc(-c2csc(-c3ccncc3)n2)c(Cl)c1 | 1.1 µM
c1cc(-c2nc(-c3nccs3)cs2)ccn1 | 21.5 µM (inactive)
Cc1sc(-c2ccncc2)nc1-c1ccc(F)cc1 | 4.77 µM
Fc1ccc(-c2csc(C3CCNCC3)n2)cc1 | > 64 µM (inactive)
COc1cccc(-c2csc(-c3ccncc3)n2)c1 | 26.2 µM (inactive)
Cc1cccc(-c2csc(-c3ccncc3)n2)c1 | 30.1 µM (inactive)
Fc1ccc(-c2csc(-c3cccnc3)n2)cc1 | 6.94 µM (inactive)
Cc1sc(C2CCNCC2)nc1-c1ccccc1 | > 64 µM (inactive)
FC(F)(F)c1ccc(-c2csc(-c3ccncc3)n2)cc1 | 3.9 µM
c1ccc(-c2csc(-c3ccccn3)n2)cc1 | 29 µM (inactive)

Structure (SMILES) | IC50
Cc1csc(-c2ccncc2)n1 | > 64 µM (inactive)
Clc1ccc(-c2csc(-c3cccnc3)n2)cc1 | 1.67 µM and 0.379 µM
COc1ccc(-c2csc(-c3ccncc3)n2)cc1 | 16.6 µM (inactive)
Clc1ccccc1-c1csc(-c2ccncc2)n1 | 3.63 µM
COC(=O)c1ccc(-c2csc(-c3ccncc3)n2)cc1 | > 64 µM (inactive)
COc1ccc(-c2csc(C3CCNCC3)n2)cc1 | > 64 µM (inactive)
Cc1ccc(-c2csc(-c3cccnc3)n2)cc1 | > 64 µM (inactive)
Cc1sc(-c2ccncc2)nc1-c1ccc(Cl)cc1 | 3.24 µM
Clc1cccc(-c2csc(-c3ccncc3)n2)c1 | 1.49 µM
Fc1ccc(-c2csc(-c3ccccc3)n2)cc1 | 23.3 µM (inactive)
c1ccc(-c2csc(-c3cccnc3)n2)cc1 | 17.7 µM (inactive)
COc1ccc(-c2csc(-c3ccccn3)n2)cc1 | 17.9 µM (inactive)
CCCc1cc(-c2nc(-c3ccc(NS(C)(=O)=O)cc3)cs2)ccn1 | > 64 µM (inactive)
Cc1ccc(-c2csc(C3CCNCC3)n2)cc1 | > 64 µM (inactive)
Cc1ccccc1-c1csc(-c2ccncc2)n1 | 14.6 µM (inactive)
c1ccc(-c2nc(-c3cccnc3)cs2)cc1 | > 64 µM (inactive)
Clc1ccc(-c2csc(C3CCNCC3)n2)cc1 | > 64 µM (inactive)
Cc1ccc(-c2csc(-c3ccccc3)n2)cc1 | > 64 µM (inactive)
Fc1ccc(-c2csc(-c3ccncc3)n2)cc1 | 2.53 µM
Fc1ccc(-c2csc(-c3ccccn3)n2)cc1 | 3.18 µM
COc1ccccc1-c1csc(-c2ccncc2)n1 | > 64 µM (inactive)
Cc1ccc(-c2nc(-c3ccncc3)sc2C)cc1 | > 64 µM (inactive)
COc1ccc(-c2csc(-c3ccccc3)n2)cc1 | 28.8 µM (inactive)
CCCc1cc(-c2nc(-c3ccc(C)cc3)cs2)ccn1 | 34.1 µM (inactive)
